# According to patent US20100261719A1, “CHEMICAL COMPOUNDS” (priority 2007, published 2010):
# Target: Escherichia coli DNA gyrase A/B tetramer (Escherichia coli, UniProt P0AES4+P0AES6)
# Experiment: DNA gyrase supercoiling activity fluorescence polarisation assay
# Format: biochemical
# Conditions: not given
# Description: In a black, 384-well polystyrene assay plate, 30 microliters/well of 5 nM Escherichia coli DNA gyrase A/B tetramer and 130 micrograms/ml of topologically relaxed plasmid containing the triplex-forming sequence […] in an assay buffer consisting of 35 mM Tris-HCl (pH 7.5), 24 mM KCl, 4 mM MgCl2, 2 mM dithiothreitol, 1.8 mM spermidine, 5% (v/v) glycerol, 200 nM bovine serum albumin, 0.8% dimethylsulfoxide, and 0.3 mM ATP may be incubated at ambient temperature for (typically 30 minutes) in the absence or presence of 5-10 different concentrations of test compound. The supercoiling reactions may be quenched by the addition of 10 microliters/well of 40 nM oligodeoxynucleotide probe in 3× triplex-forming buffer consisting of 150 mM NaCl, and 150 mM sodium acetate at pH 3.5. The oligodeoxynucleotide probe may be 5′-BODIPY-FL-labeled TTCTTCTTC. After 60 minutes, the fluorescence anisotropy of the BODIPY-FL may be measured in a Tecan Ultra plate reader, using 485 nm excitation and 535 nm emission filters equipped with polarizers. The IC50 may be determined by nonliner regression using two control reactions. The first contains no test compound but 0.8% DMSO (100% activity) while the second control reaction contains 5 uM Ciprofloxacin and 0.8% DMSO (0% activity).
# When tested in an in-vitro assay based on the DNA gyrase supercoiling activity fluorescence polarisation assay described above, the E. coli DNA gyrase supercoiling IC50 assay inhibitory activity of the following Examples was measured at the indicated IC50.
# Escherichia coli DNA gyrase A/B tetramer, sequence (P0AES4 whole entry, one chain of several): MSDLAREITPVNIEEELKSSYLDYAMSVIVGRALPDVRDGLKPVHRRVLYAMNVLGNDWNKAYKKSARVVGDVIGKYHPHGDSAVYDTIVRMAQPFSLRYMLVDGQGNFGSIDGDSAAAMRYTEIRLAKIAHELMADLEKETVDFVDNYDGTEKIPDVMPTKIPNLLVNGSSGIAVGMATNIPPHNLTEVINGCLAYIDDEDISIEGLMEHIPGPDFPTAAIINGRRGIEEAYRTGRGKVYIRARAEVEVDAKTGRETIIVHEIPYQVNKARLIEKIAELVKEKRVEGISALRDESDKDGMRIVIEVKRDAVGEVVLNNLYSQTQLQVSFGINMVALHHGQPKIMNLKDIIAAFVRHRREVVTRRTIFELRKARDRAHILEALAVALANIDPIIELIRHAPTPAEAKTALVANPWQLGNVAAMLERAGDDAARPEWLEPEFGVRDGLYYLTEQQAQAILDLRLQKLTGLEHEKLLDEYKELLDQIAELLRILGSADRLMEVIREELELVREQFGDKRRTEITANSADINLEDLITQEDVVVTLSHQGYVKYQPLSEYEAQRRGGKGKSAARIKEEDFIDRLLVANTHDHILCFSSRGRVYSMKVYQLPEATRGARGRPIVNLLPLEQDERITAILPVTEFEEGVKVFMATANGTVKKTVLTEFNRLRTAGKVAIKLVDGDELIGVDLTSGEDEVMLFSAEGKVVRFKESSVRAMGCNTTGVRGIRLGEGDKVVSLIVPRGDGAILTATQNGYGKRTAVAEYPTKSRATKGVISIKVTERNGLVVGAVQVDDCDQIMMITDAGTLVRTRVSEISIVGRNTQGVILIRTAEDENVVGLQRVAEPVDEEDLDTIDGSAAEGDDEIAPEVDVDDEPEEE
row,SMILES,IC50 [µM]
1,"CNC(=O)Nc1ccc2c(c1)CC1(C(=O)NC(=O)NC1=O)[C@H]1[C@H](C)O[C@H](C)CN21 (relative stereo) [Example 78, 1-[(2R,4S,4aS)-rel-2,4-Dimethyl-2′,4′,6′-trioxo-1,1′,2,3′,4,4′,4a,6′-octahydro-2′H,6H-spiro[1,4-oxazino[4,3-a]quinoline-5,5′-pyrimidin]-8-yl]-3-methylurea]",8.65
2,"C[C@H]1CN2c3c(cc(C#C[Si](C)(C)C)c(F)c3F)CC3(C(=O)NC(=O)NC3=O)[C@@H]2[C@@H](C)O1 (relative stereo) [Example 6, (2S,4R,4aR)-rel-9,10-Difluoro-2,4-dimethyl-8-[(trimethylsilyl)ethynyl]-1,2,4,4a-tetrahydro2′H,6H-spiro[1,4-oxazino[4,3-a]quinoline-5,5′-pyrimidine]-2′,4′,6′(1′H,3′H)-trione]",3.27
3,"C[C@@H]1CN2c3cc(F)c(C#Cc4nccs4)cc3CC3(C(=O)NC(=O)NC3=O)[C@H]2[C@H](C)O1 (relative stereo) [Example 26, (2R,4S,4aS)-rel-9-Fluoro-2,4-dimethyl-8-(1,3-thiazol-2-ylethynyl)-1,2,4,4a-tetrahydro-2′H,6H-spiro[1,4-oxazino[4,3-a]quinoline-5,5′-pyrimidine]-2′,4′,6′(1′H,3′H)-trione]",1.08
4,"C[C@H]1CN2c3c(cc(C#Cc4cc5ccccc5s4)c(F)c3F)CC3(C(=O)NC(=O)NC3=O)[C@@H]2[C@@H](C)O1 (racemic) [Example 11, (2S,4R,4aR)-rel-8-(1-Benzothiophen-2-ylethynyl)-9,10-difluoro-2,4-dimethyl-1,2,4,4a-tetrahydro-2′H,6H-spiro[1,4-oxazino[4,3-a]quinoline-5,5′-pyrimidine]-2′,4′,6′(1′H,3′H)-trione]",5.49
5,"C[C@@H]1CN2c3ccc(NC(=O)N4CCCCC4)cc3CC3(C(=O)NC(=O)NC3=O)[C@H]2[C@H](C)O1 (relative stereo) [Example 74, N-[(2R,4S,4aS)-rel-2,4-Dimethyl-2′,4′,6′-trioxo-1,1′,2,3′,4,4′,4a,6′-octahydro-2′H,6H-spiro[1,4-oxazino[4,3-a]quinoline-5,5′-pyrimidin]-8-yl]piperidine-1-carboxamide]",3.51
6,"C[C@H]1CN2c3c(cc(C#Cc4cccs4)c(F)c3F)CC3(C(=O)NC(=O)NC3=O)[C@@H]2[C@@H](C)O1 (relative stereo) [Example 10, (2S,4R,4aR)-rel-9,10-Difluoro-2,4-dimethyl-8-(thiophen-2-ylethynyl)-1,2,4,4a-tetrahydro-2′H,6H-spiro[1,4-oxazino[4,3-a]quinoline-5,5′-pyrimidine]-2′,4′,6′(1′H,3′H)-trione]",1.45
7,"C/C(=N\Nc1cnccn1)c1cc2c(c(F)c1F)N1C[C@@H](C)O[C@@H](C)[C@@H]1C1(C2)C(=O)NC(=O)NC1=O (relative stereo) [Example 60, (2R,4S,4aS)-rel-9,10-Difluoro-2,4-dimethyl-8-{(1E)-1-[2-(pyrazin-2-yl)hydrazinylidene]ethyl}-1,2,4,4a-tetrahydro-2′H,6H-spiro[1,4-oxazino[4,3-a]quinoline-5,5′-pyrimidine]-2′,4′,6′(1′H,3′H)-trione]",0.26
8,"C[C@@H]1CN2c3c(cc(C(=O)NC4CCS(=O)(=O)C4)c(F)c3F)CC3(C(=O)NC(=O)NC3=O)[C@H]2[C@H](C)O1 (relative stereo) [Example 62, (2R,4S,4aS)-rel-N-(1,1-Dioxidotetrahydrothiophen-3-yl)-9,10-difluoro-2,4-dimethyl-2′,4′,6′-trioxo-1,1′,2,3′,4,4′,4a,6′-octahydro-2′H,6H-spiro[1,4-oxazino[4,3-a]quinoline-5,5′-pyrimidine]-8-carboxamide]",7.1
9,"Cc1nnc(C#Cc2cc3c(c(F)c2F)N2C[C@H](C)O[C@H](C)[C@H]2C2(C3)C(=O)NC(=O)NC2=O)s1 (relative stereo) [Example 5, (2S,4R,4aR)-rel-9,10-Difluoro-2,4-dimethyl-8-[(5-methyl-1,3,4-thiadiazol-2-yl)ethynyl]-1,2,4,4a-tetrahydro-2′H,6H-spiro[1,4-oxazino[4,3-a]quinoline-5,5′-pyrimidine]-2′,4′,6′(1′H,3′H)-trione]",1.88
10,"C[C@@H]1CN2c3cc(F)c(C#Cc4ncccn4)cc3CC3(C(=O)NC(=O)NC3=O)[C@H]2[C@H](C)O1 (relative stereo) [Example 33, (2R,4S,4aS)-rel-9-Fluoro-2,4-dimethyl-8-(pyrimidin-2-ylethynyl)-1,2,4,4a-tetrahydro-2′H,6H-spiro[1,4-oxazino[4,3-a]quinoline-5,5′-pyrimidine]-2′,4′,6′(1′H,3′H)-trione]",1.18
11,"C[C@@H]1CN2c3cc(F)c(C#Cc4nc5ccccc5s4)cc3CC3(C(=O)NC(=O)NC3=O)[C@H]2[C@H](C)O1 (relative stereo) [Example 34, (2R,4S,4aS)-rel-8-(1,3-Benzothiazol-2-ylethynyl)-9-fluoro-2,4-dimethyl-1,2,4,4a-tetrahydro-2′H,6H-spiro[1,4-oxazino[4,3-a]quinoline-5,5′-pyrimidine]-2′,4′,6′(1′H,3′H)-trione]",2.95
12,"C/C(=N\NC(=O)C1CC1)c1cc2c(c(F)c1F)N1C[C@@H](C)O[C@@H](C)[C@@H]1C1(C2)C(=O)NC(=O)NC1=O (relative stereo) [Example 56, N′-{(1E)-1-[(2R,4S,4aS)-rel-9,10-Difluoro-2,4-dimethyl-2′,4′,6′-trioxo-1,1′,2,3′,4,4′,4a,6′-octahydro-2′H,6H-spiro[1,4-oxazino[4,3-a]quinoline-5,5′-pyrimidin]-8-yl]ethylidene}cyclopropanecarbohydrazide]",1.87
13,"C/C(=N\NC(=O)OC(C)(C)C)c1cc2c(c(F)c1F)N1C[C@@H](C)O[C@@H](C)[C@@H]1C1(C2)C(=O)NC(=O)NC1=O (relative stereo) [Example 50, tert-Butyl (2E)-2-{1-[(2R,4S,4aS)-rel-9,10-difluoro-2,4-dimethyl-2′,4′,6′-trioxo-1,1′,2,3′,4,4′,4a,6′-octahydro-2′H,6H-spiro[1,4-oxazino[4,3-a]quinoline-5,5′-pyrimidin]-8-yl]ethylidene}hydrazinecarboxylate]",2.36
14,"C[C@@H]1CN2c3c(cc(C(=O)NC4CCOC4)c(F)c3F)CC3(C(=O)NC(=O)NC3=O)[C@H]2[C@H](C)O1 (relative stereo) [Example 64, (2R,4S,4aS)-rel-9,10-Difluoro-2,4-dimethyl-2′,4′,6′-trioxo-N-(tetrahydrofuran-3-yl)-1,1′,2,3′,4,4′,4a,6′-octahydro-2′H,6H-spiro[1,4-oxazino[4,3-a]quinoline-5,5′-pyrimidine]-8-carboxamide]",5.05
15,"C/C(=N\Nc1ccccn1)c1cc2c(c(F)c1F)N1C[C@@H](C)O[C@@H](C)[C@@H]1C1(C2)C(=O)NC(=O)NC1=O (relative stereo) [Example 57, (2R,4S,4aS)-rel-9,10-Difluoro-2,4-dimethyl-8-{(1E)-1-[2-(pyridin-2-yl)hydrazinylidene]ethyl}-1,2,4,4a-tetrahydro-2′H,6H-spiro[1,4-oxazino[4,3-a]quinoline-5,5′-pyrimidine]-2′,4′,6′(1′H,3′H)-trione]",0.85
16,"COCC(=O)N/N=C(\C)c1cc2c(c(F)c1F)N1C[C@@H](C)O[C@@H](C)[C@@H]1C1(C2)C(=O)NC(=O)NC1=O (relative stereo) [Example 55, N′-{(1E)-1-[(2R,4S,4aS)-rel-9,10-Difluoro-2,4-dimethyl-2′,4′,6′-trioxo-1,1′,2,3′,4,4′,4a,6′-octahydro-2′H,6H-spiro[1,4-oxazino[4,3-a]quinoline-5,5′-pyrimidin]-8-yl]ethylidene}-2-methoxyacetohydrazide]",7.59
17,"C[C@@H]1CN2c3c(cc(C(=O)NC4CCCOC4)c(F)c3F)CC3(C(=O)NC(=O)NC3=O)[C@H]2[C@H](C)O1 (relative stereo) [Example 65, (2R,4S,4aS)-rel-9,10-Difluoro-2,4-dimethyl-2′,4′,6′-trioxo-N-(tetrahydro-2H-pyran-3-yl)-1,1′,2,3′,4,4′,4a,6′-octahydro-2′H,6H-spiro[1,4-oxazino[4,3-a]quinoline-5,5′-pyrimidine]-8-carboxamide]",> 10

# Same assay, conditions: 5 nM enzyme, 0.3 mM ATP, relaxed plasmid, fluorescence anisotropy readout; read-out: E. coli DNA gyrase supercoiling IC50
row,SMILES,IC50 [µM]
1,"Cc1nnc(C#Cc2cc(F)c3c(c2)C(=O)C2(CNC(=O)NC2=O)[C@H]2[C@H](C)O[C@H](C)CN32)s1 (relative stereo) [Example 37, (2R,4S,4aS)-rel-10-Fluoro-2,4-dimethyl-8-[(5-methyl-1,3,4-thiadiazol-2-yl)ethynyl]-1,2,4,4a-tetrahydro-2′H,6H-spiro[1,4-oxazino[4,3-a]quinoline-5,5′-pyrimidine]-2′,4′,6(1′H,3′H)-trione]",0.94
2,"C[C@@H]1CN2c3cc(F)c(C#Cc4nccn4C)cc3C(=O)C3(CNC(=O)NC3=O)[C@H]2[C@H](C)O1 (relative stereo) [Example 30, (2R,4S,4aS)-rel-9-Fluoro-2,4-dimethyl-8-[(1-methyl-1H-imidazol-2-yl)ethynyl]-1,2,4,4a-tetrahydro-2′H,6H-spiro[1,4-oxazino[4,3-a]quinoline-5,5′-pyrimidine]-2′,4′,6(1′H,3′H)-trione]",1.15
